Results taken from patent US20230085307A1, “PYRIDAZINONE COMPOUND AND HERBICIDE” (NISSAN CHEMICAL CORPORATION, priority 2019, published 2023).

Legend:
oval-leafed pondweed = test: Test Example 2: herbicidal activity, application during weed generation under submerged conditions (Table 17, symbol C); format: in vivo, oval-leafed pondweed (Monochoria vaginalis); settings: AAH 320 g/ha; application during weed generation, submerged conditions
Method in brief: (§1)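 Steps: fill Wagner pots with alluvial soil; add water to give 4 cm depth; sow the species mixed; grow under glass at 25–30° C.; at 1–2 leaves apply water-diluted emulsion formulation to the water surface at a fixed herbicide amount; score after 3 weeks.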

southern crabgrass [1] = test: Test Example 4: herbicidal effect by soil treatment (Table 19, symbol F); format: in vivo, southern crabgrass (Digitaria ciliaris)
Method in brief: (§2)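 Emulsion of test compound, water-diluted to predetermined amount, sprayed on soil after sowing (seed depth ~1.5 cm, sterilized diluvial soil). Greenhouse, 25–30° C. Effect graded at three weeks post-spray.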

false cleavers [2] = test: Test Example 5: herbicidal effect by foliage application, plastic box (Table 20, symbol Q); format: in vivo, false cleavers (Galium spurium); settings: foliage application, 320 g/ha
Method in brief: (§3)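 Post-emergence foliar test in sterilized diluvial soil. Compound applied as water-diluted emulsion at a predetermined rate to 14-day-old plants; evaluation at three weeks.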

southern crabgrass [3] = test: Test Example 5: herbicidal effect by foliage application, plastic box (Table 20, symbol F); format: in vivo, southern crabgrass (Digitaria ciliaris); settings: foliage application, 320 g/ha
Method in brief: as §3

velvetleaf [4] = test: Test Example 4: herbicidal effect by soil treatment (Table 19, symbol M); format: in vivo, velvetleaf (Abutilon theophrasti)
Method in brief: as §2

rice flat sedge = test: Test Example 3: herbicidal effect by foliage application, Wagner pot (Table 18, symbol E); format: in vivo, rice flat sedge (Cyperus iria); settings: 320 g/ha
Method in brief: (§4)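 Plants were sown in alluvial soil held under 0.1–0.5 cm standing water and grown 14 days in a greenhouse at 25–30 °C. An emulsifiable formulation, water-diluted to the set dose, was then sprayed onto the foliage, and effects were scored three weeks later using previously defined criteria.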

redroot pigweed [5] = test: Test Example 4: herbicidal effect by soil treatment (Table 19, symbol N); format: in vivo, redroot pigweed (Amaranthus retroflexus)
Method in brief: as §2

wild oat [6] = test: Test Example 4: herbicidal effect by soil treatment (Table 19, symbol I); format: in vivo, wild oat (Avena fatua)
Method in brief: as §2

barnyard grass [7] = test: Test Example 3: herbicidal effect by foliage application, Wagner pot (Table 18, symbol H); format: in vivo, barnyard grass (Echinochloa crus-galli); settings: 320 g/ha
Method in brief: as §4

Chinese sprangletop = test: Test Example 3: herbicidal effect by foliage application, Wagner pot (Table 18, symbol D); format: in vivo, chinese sprangletop (Leptochloa chinensis); settings: 320 g/ha
Method in brief: as §4

chickweed [8] = test: Test Example 4: herbicidal effect by soil treatment (Table 19, symbol P); format: in vivo, common chickweed (Stellaria media)
Method in brief: as §2

wild oat [9] = test: Test Example 5: herbicidal effect by foliage application, plastic box (Table 20, symbol I); format: in vivo, wild oat (Avena fatua); settings: foliage application, 320 g/ha
Method in brief: as §3

windgrass [10] = test: Test Example 5: herbicidal effect by foliage application, plastic box (Table 20, symbol L); format: in vivo, windgrass (Apera spica-venti); settings: foliage application, 320 g/ha
Method in brief: as §3

persian speedwell [11] = test: Test Example 5: herbicidal effect by foliage application, plastic box (Table 20, symbol R); format: in vivo, Persian speedwell (Veronica persica); settings: foliage application, 320 g/ha
Method in brief: as §3

Japanese bulrush = test: Test Example 2: herbicidal activity, application during weed generation under submerged conditions (Table 17, symbol B); format: in vivo, Japanese bulrush (Schoenoplectus juncoides); settings: AAH 320 g/ha; application during weed generation, submerged conditions
Method in brief: as §1

late watergrass = test: Test Example 2: herbicidal activity, application during weed generation under submerged conditions (Table 17, symbol A); format: in vivo, late watergrass (Echinochloa oryzicola); settings: AAH 320 g/ha; application during weed generation, submerged conditions
Method in brief: as §1

barnyard grass [12] = test: Test Example 5: herbicidal effect by foliage application, plastic box (Table 20, symbol H); format: in vivo, barnyard grass (Echinochloa crus-galli); settings: foliage application, 320 g/ha
Method in brief: as §3

false cleavers [13] = test: Test Example 4: herbicidal effect by soil treatment (Table 19, symbol Q); format: in vivo, false cleavers (Galium spurium)
Method in brief: as §2

Italian ryegrass [14] = test: Test Example 5: herbicidal effect by foliage application, plastic box (Table 20, symbol K); format: in vivo, Italian ryegrass (Lolium multiflorum); settings: foliage application, 320 g/ha
Method in brief: as §3

blackgrass [15] = test: Test Example 5: herbicidal effect by foliage application, plastic box (Table 20, symbol J); format: in vivo, blackgrass (Alopecurus myosuroides); settings: foliage application, 320 g/ha
Method in brief: as §3

blackgrass [16] = test: Test Example 4: herbicidal effect by soil treatment (Table 19, symbol J); format: in vivo, blackgrass (Alopecurus myosuroides); settings: 320 g/ha
Method in brief: as §2

windgrass [17] = test: Test Example 4: herbicidal effect by soil treatment (Table 19, symbol L); format: in vivo, windgrass (Apera spica-venti)
Method in brief: as §2

lambsquarters [18] = test: Test Example 4: herbicidal effect by soil treatment (Table 19, symbol O); format: in vivo, lambsquarters (Chenopodium album)
Method in brief: as §2

barnyard grass [19] = test: Test Example 4: herbicidal effect by soil treatment (Table 19, symbol H); format: in vivo, barnyard grass (Echinochloa crus-galli)
Method in brief: as §2

green foxtail [20] = test: Test Example 5: herbicidal effect by foliage application, plastic box (Table 20, symbol G); format: in vivo, green foxtail (Setaria viridis); settings: foliage application, 320 g/ha
Method in brief: as §3

lambsquarters [21] = test: Test Example 5: herbicidal effect by foliage application, plastic box (Table 20, symbol O); format: in vivo, lambsquarters (Chenopodium album); settings: foliage application, 320 g/ha
Method in brief: as §3

Italian ryegrass [22] = test: Test Example 4: herbicidal effect by soil treatment (Table 19, symbol K); format: in vivo, Italian ryegrass (Lolium multiflorum)
Method in brief: as §2

persian speedwell [23] = test: Test Example 4: herbicidal effect by soil treatment (Table 19, symbol R); format: in vivo, Persian speedwell (Veronica persica)
Method in brief: as §2

green foxtail [24] = test: Test Example 4: herbicidal effect by soil treatment (Table 19, symbol G); format: in vivo, green foxtail (Setaria viridis)
Method in brief: as §2

velvetleaf [25] = test: Test Example 5: herbicidal effect by foliage application, plastic box (Table 20, symbol M); format: in vivo, velvetleaf (Abutilon theophrasti); settings: foliage application, 320 g/ha
Method in brief: as §3

redroot pigweed [26] = test: Test Example 5: herbicidal effect by foliage application, plastic box (Table 20, symbol N); format: in vivo, redroot pigweed (Amaranthus retroflexus); settings: foliage application, 320 g/ha, evaluated three weeks after application
Method in brief: as §3

chickweed [27] = test: Test Example 5: herbicidal effect by foliage application, plastic box (Table 20, symbol P); format: in vivo, common chickweed (Stellaria media); settings: foliage application, 320 g/ha, evaluated three weeks after application
Method in brief: as §3

[28] = amount of applied herbicide 320 g/ha
[29] = evaluated three weeks after application

CCCC(=O)Oc1c(C)nn(C)c(=O)c1-c1c(-c2ccc(F)cc2)sc2ccc(F)cc12 [2-002]
herbicidal effect rating, C: oval-leafed pondweed (oval-leafed pondweed): 3 (Herbicidal rate of 40% or more and less than 70%)
herbicidal effect rating, F: southern crabgrass (southern crabgrass [1]; 320 g/ha): 5 (Herbicidal rate of 90% or more (almost completely withered))
effect on false cleavers (Q) (false cleavers [2]; 3 weeks after application): 5 (Herbicidal rate of 90% or more (almost completely withered))
effect on southern crabgrass (F) (southern crabgrass [3]; 3 weeks after application): 5 (Herbicidal rate of 90% or more (almost completely withered))
herbicidal effect rating, M: velvetleaf (velvetleaf [4]; 320 g/ha): 5 (Herbicidal rate of 90% or more (almost completely withered))
herbicidal effect on E (rice flat sedge), rating 0-5 (rice flat sedge): 5 (Herbicidal rate of 90% or more (almost completely withered))
herbicidal effect rating, N: redroot pigweed (redroot pigweed [5]; 320 g/ha): 5 (Herbicidal rate of 90% or more (almost completely withered))
herbicidal effect rating, I: wild oat (wild oat [6]; 320 g/ha): 3 (Herbicidal rate of 40% or more and less than 70%)
herbicidal effect on H (barnyard grass), rating 0-5 (barnyard grass [7]): 5 (Herbicidal rate of 90% or more (almost completely withered))
herbicidal effect on D (Chinese sprangletop), rating 0-5 (Chinese sprangletop): 5 (Herbicidal rate of 90% or more (almost completely withered))
herbicidal effect rating, P: chickweed (chickweed [8]; 320 g/ha): 3 (Herbicidal rate of 40% or more and less than 70%)
effect on wild oat (I) (wild oat [9]; 3 weeks after application): 4 (Herbicidal rate of 70% or more and less than 90%)
effect on windgrass (L) (windgrass [10]; 3 weeks after application): 3 (Herbicidal rate of 40% or more and less than 70%)
effect on persian speedwell (R) (persian speedwell [11]; 3 weeks after application): 5 (Herbicidal rate of 90% or more (almost completely withered))
herbicidal effect rating, B: Japanese bulrush (Japanese bulrush): 0 (Herbicidal rate of 5% or less (almost no effect))
herbicidal effect rating, A: late watergrass (late watergrass): 2 (Herbicidal rate of 20% or more and less than 40%)
effect on barnyard grass (H) (barnyard grass [12]; 3 weeks after application): 5 (Herbicidal rate of 90% or more (almost completely withered))
herbicidal effect rating, Q: false cleavers (false cleavers [13]; 320 g/ha): 4 (Herbicidal rate of 70% or more and less than 90%)
effect on Italian ryegrass (K) (Italian ryegrass [14]; 3 weeks after application): 5 (Herbicidal rate of 90% or more (almost completely withered))
effect on blackgrass (J) (blackgrass [15]; 3 weeks after application): 4 (Herbicidal rate of 70% or more and less than 90%)
herbicidal effect rating, J: blackgrass (blackgrass [16]): 1 (Herbicidal rate of 5% or more and less than 20%)
herbicidal effect rating, L: windgrass (windgrass [17]; 320 g/ha): 1 (Herbicidal rate of 5% or more and less than 20%)
herbicidal effect rating, O: lambsquarters (lambsquarters [18]; 320 g/ha): 4 (Herbicidal rate of 70% or more and less than 90%)
herbicidal effect rating, H: barnyard grass (barnyard grass [19]; 320 g/ha): 4 (Herbicidal rate of 70% or more and less than 90%)
effect on green foxtail (G) (green foxtail [20]; 3 weeks after application): 5 (Herbicidal rate of 90% or more (almost completely withered))
effect on lambsquarters (O) (lambsquarters [21]; 3 weeks after application): 5 (Herbicidal rate of 90% or more (almost completely withered))
herbicidal effect rating, K: Italian ryegrass (Italian ryegrass [22]; 320 g/ha): 5 (Herbicidal rate of 90% or more (almost completely withered))
herbicidal effect rating, R: persian speedwell (persian speedwell [23]; 320 g/ha): 5 (Herbicidal rate of 90% or more (almost completely withered))
herbicidal effect rating, G: green foxtail (green foxtail [24]; 320 g/ha): 5 (Herbicidal rate of 90% or more (almost completely withered))
effect on velvetleaf (M) (velvetleaf [25]; 3 weeks after application): 5 (Herbicidal rate of 90% or more (almost completely withered))

CCCC(=O)Oc1c(C)nn(C)c(=O)c1-c1c(-c2ccc3c(c2)OCO3)sc2ccc(Cl)cc12 [2-126]
herbicidal effect rating, C: oval-leafed pondweed (oval-leafed pondweed): 2 (Herbicidal rate of 20% or more and less than 40%)
F: southern crabgrass, herbicidal effect rating (southern crabgrass [1]; [28]): 0 (Herbicidal rate of 5% or less (almost no effect))
herbicidal effect on Q: false cleavers (false cleavers [2]; [29]): 2 (Herbicidal rate of 20% or more and less than 40%)
herbicidal effect on F: southern crabgrass (southern crabgrass [3]; [29]): 0 (Herbicidal rate of 5% or less (almost no effect))
herbicidal effect on N: redroot pigweed (redroot pigweed [26]): 1 (Herbicidal rate of 5% or more and less than 20%)
M: velvetleaf, herbicidal effect rating (velvetleaf [4]; [28]): 0 (Herbicidal rate of 5% or less (almost no effect))
N: redroot pigweed, herbicidal effect rating (redroot pigweed [5]; [28]): 0 (Herbicidal rate of 5% or less (almost no effect))
I: wild oat, herbicidal effect rating (wild oat [6]; [28]): 0 (Herbicidal rate of 5% or less (almost no effect))
P: chickweed, herbicidal effect rating (chickweed [8]; [28]): 3 (Herbicidal rate of 40% or more and less than 70%)
herbicidal effect on I: wild oat (wild oat [9]; [29]): 0 (Herbicidal rate of 5% or less (almost no effect))
herbicidal effect on L: windgrass (windgrass [10]; [29]): 0 (Herbicidal rate of 5% or less (almost no effect))
herbicidal effect on P: chickweed (chickweed [27]): 2 (Herbicidal rate of 20% or more and less than 40%)
herbicidal effect on R: persian speedwell (persian speedwell [11]; [29]): 5 (Herbicidal rate of 90% or more (almost completely withered))
herbicidal effect rating, B: Japanese bulrush (Japanese bulrush): 0 (Herbicidal rate of 5% or less (almost no effect))
herbicidal effect rating, A: late watergrass (late watergrass): 0 (Herbicidal rate of 5% or less (almost no effect))
herbicidal effect on H: barnyard grass (barnyard grass [12]; [29]): 0 (Herbicidal rate of 5% or less (almost no effect))
Q: false cleavers, herbicidal effect rating (false cleavers [13]; [28]): 0 (Herbicidal rate of 5% or less (almost no effect))
herbicidal effect on K: Italian ryegrass (Italian ryegrass [14]; [29]): 0 (Herbicidal rate of 5% or less (almost no effect))
herbicidal effect on J: blackgrass (blackgrass [15]; [29]): 0 (Herbicidal rate of 5% or less (almost no effect))
L: windgrass, herbicidal effect rating (windgrass [17]; [28]): 0 (Herbicidal rate of 5% or less (almost no effect))
O: lambsquarters, herbicidal effect rating (lambsquarters [18]; [28]): 2 (Herbicidal rate of 20% or more and less than 40%)
H: barnyard grass, herbicidal effect rating (barnyard grass [19]; [28]): 0 (Herbicidal rate of 5% or less (almost no effect))
herbicidal effect on G: green foxtail (green foxtail [20]; [29]): 0 (Herbicidal rate of 5% or less (almost no effect))
herbicidal effect on O: lambsquarters (lambsquarters [21]; [29]): 3 (Herbicidal rate of 40% or more and less than 70%)
K: Italian ryegrass, herbicidal effect rating (Italian ryegrass [22]; [28]): 0 (Herbicidal rate of 5% or less (almost no effect))
R: persian speedwell, herbicidal effect rating (persian speedwell [23]; [28]): 4 (Herbicidal rate of 70% or more and less than 90%)
G: green foxtail, herbicidal effect rating (green foxtail [24]; [28]): 0 (Herbicidal rate of 5% or less (almost no effect))
herbicidal effect on M: velvetleaf (velvetleaf [25]; [29]): 3 (Herbicidal rate of 40% or more and less than 70%)
